Patent publication US9615576B2, “Pesticidal compositions and processes related thereto” (Dow AgroSciences LLC, priority 2011, dated 2017)

Assays:
[1] = tested on: Beet Armyworm (BAW) (Spodoptera exigua); experiment: Bioassays on Beet Armyworm (BAW), 128-well diet tray assay; assay type: in vivo; conditions: 168 h, 50 μg/cm^2 test compound on artificial diet, second instar larvae, 25° C., five to seven days, average of eight wells, read-out: BAW Rating (% mortality)
In short: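 Second-instar larvae (1–5 per well) on artificial diet surface-treated with 50 μg/cm^2 compound applied in 90:10 acetone-water and dried; eight wells per compound. Held 5–7 days at 25° C., 14:10 light-dark. Percent mortality scored per well and averaged over eight wells.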

[2] = tested on: Corn Earworm (CEW) (Helicoverpa zea); experiment: Bioassays on Corn Earworm (CEW), 128-well diet tray assay; assay type: in vivo; conditions: 168 h, 50 μg/cm^2 test compound on artificial diet, second instar larvae, 25° C., five to seven days, average of eight wells, read-out: CEW Rating (% mortality)
In short: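 Second-instar larvae (one to five per well) placed on artificial diet treated with 50 μg/cm^2 compound in 90:10 acetone-water, dried; eight wells per compound. Held at 25° C, 14:10 light-dark, five to seven days; percent mortality averaged over wells.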

| SMILES | mortality at 50 µg/cm2 [1] [%] | mortality at 50 µg/cm2 [2] [%] |
| --- | --- | --- |
| O=C(NC1CCN(CC(F)(F)F)CC1)c1ccc(/C=C/C(c2cc(Cl)c(Cl)c(Cl)c2)C(F)(F)F)cc1Br (centres unmarked) [AC105, (E)-2-bromo-4-(4,4,4-trifluoro-3-(3,4,5-trichlorophenyl)but-1-en-1-yl)-N-(1-(2,2,2-trifluoroethyl)piperidin-4-yl)benzamide] | 50 to 100 | 50 to 100 |
| CN1CCC(NC(=O)c2ccc(/C=C/C(c3cc(Cl)c(Cl)c(Cl)c3)C(F)(F)F)cc2Br)CC1 (centres unmarked) [AC106, (E)-2-bromo-N-(1-methylpiperidin-4-yl)-4-(4,4,4-trifluoro-3-(3,4,5-trichlorophenyl)but-1-en-1-yl)benzamide] | 50 to 100 | 50 to 100 |
| N#CCN1CCC(NC(=O)c2ccc(/C=C/C(c3cc(Cl)c(Cl)c(Cl)c3)C(F)(F)F)cc2Br)CC1 (centres unmarked) [AC107] | 0 to 50 | 50 to 100 |
| O=C(NC1CCN(C2COC2)CC1)c1ccc(/C=C/C(c2cc(Cl)c(Cl)c(Cl)c2)C(F)(F)F)cc1Br (centres unmarked) [AC108, (E)-2-bromo-N-(1-(oxetan-3-yl)piperidin-4-yl)-4-(4,4,4-trifluoro-3-(3,4,5-trichlorophenyl)but-1-en-1-yl)benzamide] | 0 to 50 | 0 |
| O=C(NC1CCN(CCO)CC1)c1ccc(/C=C/C(c2cc(Cl)c(Cl)c(Cl)c2)C(F)(F)F)cc1Br (centres unmarked) [AC109, (E)-2-bromo-N-(1-(2-hydroxyethyl)piperidin-4-yl)-4-(4,4,4-trifluoro-3-(3,4,5-trichlorophenyl)but-1-en-1-yl)benzamide] | 0 | 0 |
| CONC(=O)CNC(=O)c1ccc(/C=C/C(c2cc(Cl)c(Cl)c(Cl)c2)C(F)(F)F)cc1Br (centres unmarked) [AC110] | 50 to 100 | 50 to 100 |
| C=CCNC(=O)CNC(=O)c1ccc(/C=C/C(c2cc(Cl)c(Cl)c(Cl)c2)C(F)(F)F)cc1Br (centres unmarked) [AC111] | 50 to 100 | 50 to 100 |
| CN(C)NC(=O)CNC(=O)c1ccc(/C=C/C(c2cc(Cl)c(Cl)c(Cl)c2)C(F)(F)F)cc1Br (centres unmarked) [AC112] | 50 to 100 | 50 to 100 |
| O=C(NCCc1ccc(Cl)nc1)c1ccc(/C=C/C(c2cc(Cl)c(Cl)c(Cl)c2)C(F)(F)F)cc1Br (centres unmarked) [AC113] | 0 to 50 | 50 to 100 |
| O=C(NC1CCNCC1)c1ccc(/C=C/C(c2cc(Cl)c(Cl)c(Cl)c2)C(F)(F)F)cc1Br (centres unmarked) [AC114, (E)-2-bromo-N-(piperidin-4-yl)-4-(4,4,4-trifluoro-3-(3,4,5-trichlorophenyl)but-1-en-1-yl)benzamide] | 50 to 100 | 0 to 50 |
| Cc1cc(/C=C/C(c2cc(Cl)cc(Cl)c2)C(F)(F)F)ccc1C(=S)NCc1ccc(Cl)nc1 (centres unmarked) [AC115, (E)-N-((6-chloropyridin-3-yl)methyl)-4-(3-(3,5-dichlorophenyl)-4,4,4-trifluorobut-1-en-1-yl)-2-methylbenzothioamide] | 50 to 100 | 50 to 100 |
| Cc1cc(/C=C/C(c2cc(Cl)cc(Cl)c2)C(F)(F)F)ccc1C(=O)N(C)Cc1ccc(Cl)nc1 (centres unmarked) [AC117] | 50 to 100 | 0 |
| Cc1cc(/C=C/C(c2cc(Cl)cc(Cl)c2)C(F)(F)F)ccc1C(=O)NCC1CCCO1 (centres unmarked) [AC118] | 50 to 100 | 0 |
| CNC(=S)NC1CCc2cc(/C=C/C(c3cc(Cl)c(Cl)c(Cl)c3)C(F)(F)F)ccc21 (centres unmarked) [BC1, (E)-1-methyl-3-(5-(4,4,4-trifluoro-3-(3,4,5-trichlorophenyl)-but-1-enyl)-2,3-dihydro-1H-inden-1-yl)thiourea] | 50 to 100 | 50 to 100 |
| CCNC(=S)NC1CCc2cc(/C=C/C(c3cc(Cl)c(Cl)c(Cl)c3)C(F)(F)F)ccc21 (centres unmarked) [BC2] | 50 to 100 | 50 to 100 |
| C=CCNC(=S)NC1CCc2cc(/C=C/C(c3cc(Cl)c(Cl)c(Cl)c3)C(F)(F)F)ccc21 (centres unmarked) [BC3] | 50 to 100 | 50 to 100 |
